According to patent publication US5854010A, “Bioassay for detecting 2,3,7,8-tetrachlorodibenzo-para-dioxin and TCDD-like compounds and novel recombinant cell line useful therefor” (priority 1997, dated 1998):

Key:
Type in all cases: cell-based, mouse
[1] = system: H1L1.1 cells; assay: Dose response of luciferase induction, 24 h (FIGS. 3-6, Table 3); conditions: for Induced luciferase activity, TCDD reference: 1 nM TCDD in DMSO
Procedure: The graph of FIG. 3 illustrates the dose dependence of luciferase induction in the mouse H1L1.1 cells measured following […] of the cells to increasing concentrations of TCDD or other toxic compounds (which others are discussed in more detail below).
More particularly, the stable cell clones for the mouse H1L1.1 cells (about 90% confluent) were plated into six-well microplates (purchased from Corning) and incubated for 24 hours with the indicated concentration of the particular toxin solubilized in DMSO. Then, the cells were lysed with 100 μl of lysis buffer and luciferase activity was determined as described above. Values represent the mean ± the standard evaluation of at least triplicate determinations.
As set out in Table 3, the responsiveness and sensitivity of the mouse H1L1.1 cells was compared to the responsiveness and sensitivity of certain other published PCDH cell bioassay systems. The other systems were a recombinant HepG2 (101L) cell line that induces firefly luciferase (see, Postlind et al., supra), a recombinant Hepa1 (T13) cell line that induces PAP activity (see El-Fouly et al., supra), and a rat H4IIE cell line that induces EROD activity (see, Kennedy et al., supra). The ED50 values were calculated by probit analysis of the dose-response data.
As set out in the graphs of FIGS. 3-6, since one use of the stably transfected mouse H1L1.1 cell lines is for detection and relative quantitative analysis of TCDD and various dioxin-like compounds (i.e., AhR ligands), the ability of various compounds besides TCDD to induce luciferase activity in the mouse H1L1.1 cells was examined. The experiments performed to determine the dose-response curves for the toxins other than TCDD set out in the graphs of FIGS. 3-6 were performed in essentially the same manner as the experiments described above to determine the dose response curve of TCDD set out in the graph of FIG. 3.
Specifically, with respect to the data illustrated in the graph of FIG. 3, cells were incubated with increasing concentrations of test chemical and luciferase activity determined after 24 hours.
It should be noted that the low numerical values of luciferase activity from induction by various PCBs reported in FIGS. 4 and 5, compared to the values reported in the other figures, are not due to actual low levels of luciferase induction, but to the fact that the detection of luminescence in these experiments was performed using a different instrument from that used in the other experiments.
However, the relative magnitude of luciferase induction by the mono-ortho-PCBs (FIG. 4) and the AROCLORS (FIG. 5) was established by directly comparing the resulting activity to that produced by a maximally inducing dose of TCDD (1 nM solubilized in DMSO) measured in the same instrument.

[2] = system: H1L1.1 cells; assay: Time course of luciferase induction by TCDD (FIG. 2); conditions: 1 nM TCDD in DMSO
Procedure: Specifically, with respect to the graph of FIG. 2, the time course of luciferase induction by TCDD was examined in order to determine the optimal time period for measurement of luciferase activity in the H1L1.1 cells. In these experiments, the cells were treated with 1 nM of TCDD solubilized in DMSO or with only DMSO. The luciferase activity was determined as described above at various times up to 32 hours post exposure. Values represent the mean ± the standard evaluation of at least triplicate determinations.

[3] = system: Hepa1-BPRc1 cells (defective arnt protein); assay: TCDD-inducible luciferase activity, transient transfection with pGudLuc1.1
Procedure: (§1) In general, the expression vectors pGudLuc1.0 and pGudLuc1.1 were prepared as follows. A 1330-bp HindIII fragment or an 1810-bp HindIII fragment isolated from the plasmid, pMpap1.0 or pMpap1.1, respectively (see, El-Fouly et al., supra), was subcloned into the HindIII site immediately upstream of the luciferase gene in the plasmid pGL2-basic (purchased from Promega).
(§2) More specifically, the following cells were obtained from the source indicated. Wild-type and AhR-defective (BPRc1 and TAO, respectively) mouse hepatoma (Hepa1c1c7) cells (Hepa1), derived from a C57B1 mouse liver tumor, were obtained from J. P. Whitlock, Jr. (Stanford University). These cells were grown as previously described by Miller et al. in "Biochemical and Genetic Analysis of Variant Mouse Hepatoma Cells Defective in the Induction of Benzo(a)pyrene Metabolizing Enzyme Activity", J. Biol. Chem., Vol. 258, pp. 3523-3527 (1983). Additionally, mouse hepatoma (MLE/BV) cells, derived from a spontaneously immortalized C3H/HeN mouse liver cell, were obtained from B. V. Madhukar (Indiana University School of Medicine, Indianapolis, Ind.) and were grown as described for the Hepa1 cells. Rat hepatoma (H4IIe) cells, guinea pig intestinal adenocarcinoma (GPC16) cells, hamster lung (AHL) cells, human hepatoma (HepG2) cells, human breast tumor (MCF7) cells, and human intestinal epithelial (LS180) cells were obtained from the American Type Culture Collection (Rockville, Md.). Until transfection, all of the cells were maintained according to their respective cell-type-specific culture protocols.
(§3) Transfection was accomplished as follows. Using polybrene as previously described by Helferich et al. in "Photooxidized Products of Tryptophan Can Act as Dioxin Agonists", Mol. Pharmacol., Vol. 40, pp. 674-678 (1991), plates of cells (approximately 80% confluent) were transiently transfected with the desired plasmid (15 μg). Then, the transfected cells were allowed to grow for 48 hours, followed by the addition of either DMSO (1 μl/ml) or TCDD (1 nM) solubilized in DMSO, which was followed by incubation for 24 hours. Next, the plates were transferred onto ice, and the media were removed, after which the plates were rinsed twice with cold PBS. Then, 200 μl of luciferase lysis buffer (purchased from Promega) was used to lyse the cells. The lysed cell samples were collected and transferred into a microfuge tube. Cell debris was pelleted by centrifugation, and the supernatants were collected. The supernatant samples were assayed for TCDD-inducible luciferase activity in the following manner.
(§4) Using the stabilized luciferase assay system (purchased from Promega), luciferase activity in an aliquot of the cleared lysed cell supernatant (20 μl) was determined by mixing it with 100 µl of luciferase assay reagent (purchased from Promega) and measuring the resulting luminescence in a Turner Luminometer or Dynatech ML3000 microplate luminometer (light output was integrated over 1 minute after a delay time of 30 seconds).
(§5) Using a microplate adaptation of the method reported by Bradford in "A Rapid Sensitive Method for the Quantitation of Microgram Quantities of Protein Utilizing the Principle of Protein-Dye Binding", Anal. Biochem., […], pp. 248-254 (1976), luciferase activity was standardized to the protein concentration of the supernatant (with bovine serum albumin as the protein standard). Because of instrument differences in luminescence measurement and data output, luciferase activity was determined as relative light units (RLU) per microgram of protein, which was converted to milligram of protein as reported in the Tables below.

[4] = system: MLE-BV cells; assay: as above
Procedure: as §1, §2, §3, §4, §5

[5] = Mus musculus, Luc1.1, TCDD 1 nM vs DMSO

Clc1cc2c(cc1Cl)Oc1cc(Cl)c(Cl)cc1O2 [TCDD, 2,3,7,8-tetrachlorodibenzo-para-dioxin]
Induced luciferase activity, TCDD reference ([1]; instrument of FIG. 4): 2.25±0.6 | Induced luciferase activity, TCDD reference ([1]; instrument of FIG. 5): 0.95±0.07 | EC50 ([1]; Mus musculus, 24 h, FIG. 3): ~0.02 nM | fold induction at 0.001 µM ([1]; Mus musculus, by 1.0 nM TCDD, 24 h, FIG. 3, read-out: Maximal induction of luciferase activity): 80 | Dose dependence of luciferase induction ([1]; TCDD, 24 h, FIG. 3): dose dependent | Time at which TCDD-inducible luciferase activity was detectable [2]: 2 h | Time by which luciferase activity decreased to a stable activity [2]: ≤ 12 h | Time of peak TCDD-inducible luciferase activity [2]: about 4 hours | Luciferase activity, TCDD in DMSO ([3]; Luc1.1, TCDD 1 nM, 24 h): 0.8 RLU/mg protein | fold induction [3, 5]: 1.6 | Induction of luciferase activity ([3]; pGudLuc1.1, TCDD 1 nM): failure of TCDD treatment to induce luciferase activity | Luciferase activity, TCDD in DMSO ([4]; Luc1.1, TCDD 1 nM, 24 h): 13.2 RLU/mg protein | fold induction [4, 5]: 66
